In patent publication US20140242093A1, “METHODS AND COMPOSITIONS FOR MODULATING THE INNATE IMMUNE RESPONSE AND/OR MYOGENESIS IN A MAMMALIAN SUBJECT” (FRED HUTCHINSON CANCER RESEARCH CENTER, priority 2011, published 2014):

Tested on: control human primary myoblasts
Experiment: Expression microarray of primary myoblasts transduced with lentivirus carrying DUX4-fl, DUX4-s or GFP
Procedure: Primary human myoblasts were collected and cultured as previously described (Snider et al., 2010). Primary myoblasts were maintained at or below 70% confluency for proliferation. For differentiation, cells were allowed to reach 95-100% confluency in growth medium. Once confluency was reached, the cells were changed to differentiation medium (F10 media supplemented with 1% horse serum, 10 μg/mL insulin, and 10 μg/mL transferrin, penicillin/streptomycin) and maintained for 4 days. Human RD cells were grown in DMEM in 10% bovine calf serum (Hyclone) and penicillin/streptomycin. The primary myoblasts were transduced with lentivirus carrying DUX-fl, DUX4- or GFP (MOI=15).
Expression microarrays were performed on the transduced cells at 24 hours after transduction as follows. […] Samples were analyzed by Illumina Human Whole Genome microarrays. Probe intensities were corrected, normalized, and summarized by the Lumi package of Bioconductor (Du et al., 2008). Differentially expressed genes were identified by the LIMMA package of Bioconductor (Wettenhall and Smyth, 2004). Gene set enrichment analysis (GSEA) was performed using the Bioconductor GOstats package (Falcon and Gentleman, 2007).

With “DUX4-fl: full-length DUX4 protein (SEQ ID NO:110), expressed from lentiviral or pCS2 vectors or in vitro translated” the “fc of ATRIP (expression array)” value (Refseq NM_032166.2) was −1.006, the CEP78 expression fc (Refseq NM_032171.1) was 2.035 and the SON expression fc (Refseq NM_032195.1) was 2.055. It also gave an LARP1B expression fc (Refseq NM_032239.2) of 1.858, an MED10 expression fc (Refseq NM_032286.2) of 1.965 and a C1orf57 fc (Refseq NM_032324.1) of −1.117. For the same substance, the ELOF1 expression fc (Refseq NM_032377.3) was 1.884, the “fc of C15orf48 (expression array)” value (Refseq NM_032413.2) was −0.8681 and the PKIB expression fc (Refseq NM_032471.4) was 1.858. It also gave a KBTBD8 expression fc (Refseq NM_032505.1) of 3.076, a TMEM185A expression fc (Refseq NM_032508.1) of 2.292 and a PARD6G fc (Refseq NM_032510.3) of −1.161. The “fc of EBPL (expression array)” value (Refseq NM_032565.2) was −1.006, the “fc of ACCS (expression array)” value (Refseq NM_032592.3) was −1.038 and the RBBP6 expression fc (Refseq NM_032626.5) was 1.986. For the same substance, the SPRYD5 expression fc (Refseq NM_032681.1) was 8.045, the “fc of SPPL2A (expression array)” value (Refseq NM_032802.3) was −0.7524 and the ATOH8 expression fc (Refseq NM_032827.4, cultured human skeletal muscle) was −2.073. The CORO6 fc (Refseq NM_032854.2) was −1.12, the “fc of TIGD5 (expression array)” value (Refseq NM_032862.2) was −1.003 and the CASP6 expression fc (Refseq NM_032992.2) was 2.035. For the same substance, the TRIM5 fc (Refseq NM_033034.1) was −1.114, the EPSTI1 expression fc (Refseq NM_033255.2, cultured human skeletal muscle) was −4.12 and the TP53INP1 fc (Refseq NM_033285.2) was −1.138. The CASP1 fc (Refseq NM_033294.2) was −1.17, the PRIC285 expression fc (Refseq NM_033405.2, cultured human skeletal muscle) was −2.608 and the ZNF622 expression fc (Refseq NM_033414.2) was 2.406. The PANX2 expression fc (Refseq NM_052839.2) was 3.831, the “fc of C20orf72 (expression array)” value (Refseq NM_052865.2) was −1.04 and the “fc of GBP5 (expression array)” value (Refseq NM_052942.2) was −0.9094. For the same substance, the “fc of ALPK2 (expression array)” value (Refseq NM_052947.3) was −0.3826, the “fc of ANTXR1 (expression array)” value (Refseq NM_053034.1) was −1.013 and the AP1S1 fc (Refseq NM_057089.2) was −1.095. For the same substance, the CCNE1 expression fc (Refseq NM_057182.1) was 1.863, the FBXO32 fc (Refseq NM_058229.2) was −1.177 and the CCNT2 expression fc (Refseq NM_058241.1) was 1.876. The SLC44A1 fc (Refseq NM_080546.3) was −1.132, the “fc of C2orf28 (expression array)” value (Refseq NM_080592.2) was −1.029 and the DYNLL2 expression fc (Refseq NM_080677.1) was 2.736. It also gave an HOM-TES-103 fc (Refseq NM_080731.1) of −1.065, a ZNF280A expression fc (Refseq NM_080740.3) of 3.798 and a C20orf127 expression fc (Refseq NM_080757.1, cultured human skeletal muscle) of −2.098. For the same substance, the “fc of PTPRA (expression array)” value (Refseq NM_080841.2) was −1.02, the ASB5 fc (Refseq NM_080874.2) was −1.135 and the APBB3 expression fc (Refseq NM_133172.2, cultured human skeletal muscle) was −1.994. The “fc of DIS3L (expression array)” value (Refseq NM_133375.2) was −1.005, the C6orf117 expression fc (Refseq NM_138409.1) was 2.446 and the “fc of SDSL (expression array)” value (Refseq NM_138432.2) was −1.011. For the same substance, the TRIM43 expression fc (Refseq NM_138800.1) was 5.806, the CMBL expression fc (Refseq NM_138809.3, cultured human skeletal muscle) was −1.992 and the “fc of FGD4 (expression array)” value (Refseq NM_139241.1) was −0.5592. It also gave an ANGPTL4 fc (Refseq NM_139314.1) of −1.064, an MBD3L2 expression fc (Refseq NM_144614.2) of 7.623 and a JSRP1 fc (Refseq NM_144616.2) of −1.175. The “fc of PPM1M (expression array)” value (Refseq NM_144641.1) was −1.015, the “fc of C1orf58 (expression array)” value (Refseq NM_144695.2) was −0.4075 and the FXYD5 fc (Refseq NM_144779.1) was −1.065. For the same substance, the Cllorf82 expression fc (Refseq NM_145018.2) was 2.531, the CDC42EP5 fc (Refseq NM_145057.2) was −1.137 and the SPATA18 expression fc (Refseq NM_145263.2, cultured human skeletal muscle) was −1.989. The MOBKL2C fc (Refseq NM_145279.4) was −1.106, the ZNF296 expression fc (Refseq NM_145288.1) was 5.536 and the “fc of MGST1 (expression array)” value (Refseq NM_145792.1) was −1.032. For the same substance, the OSBPL7 fc (Refseq NM_145798.2) was −1.145, the TP53I3 expression fc (Refseq NM_147184.1, cultured human skeletal muscle) was −1.961 and the “fc of GJD3 (expression array)” value (Refseq NM_152219.3) was −1.028. The ACPL2 fc (Refseq NM_152282.3) was −1.079, the “fc of C1orf131 (expression array)” value (Refseq NM_152379.2) was −1.023 and the “fc of PPM1K (expression array)” value (Refseq NM_152542.2) was −0.146. The C12orf50 expression fc (Refseq NM_152589.1) was 4.522, the C1orf55 expression fc (Refseq NM_152608.3) was 2.049 and the MLKL expression fc (Refseq NM_152649.1, cultured human skeletal muscle) was −2.992. It also gave a ZSCAN4 expression fc (Refseq NM_152677.1) of 8.322, an SAMD9L expression fc (Refseq NM_152703.2, cultured human skeletal muscle) of −2.532 and a VWCE expression fc (Refseq NM_152718.2, cultured human skeletal muscle) of −3.317. The “fc of D2HGDH (expression array)” value (Refseq NM_152783.3) was −1.031, the FAS fc (Refseq NM_152877.1) was −1.133 and the APCDD1 expression fc (Refseq NM_153000.3, cultured human skeletal muscle) was −1.894. The PMP22 fc (Refseq NM_153321.1) was −1.103, the SLC2A14 expression fc (Refseq NM_153449.2) was 2.374 and the CYBASC3 expression fc (Refseq NM_153611.3, cultured human skeletal muscle) was −1.945.
